Data from PMC4462585, “Synthesis and Biological Evaluation of 3-Alkyl-1,5-Diaryl-1H-Pyrazoles as Rigid Analogues of Combretastatin A-4 with Potent Antiproliferative Activity” (PLoS ONE, 2015).

What was measured:
[1] = system: fibrosarcoma cell line HT-1080; assay: MTT antiproliferative assay, HT-1080; format: cell-based; settings: Homo sapiens, 72 h drug exposure, triplicate, read-out: Antiproliferative activity (IC50 ± SD) HT-1080
Source text: (§1) Pulmonary adenocarcinoma cell lines (A549) and gastric adenocarcinoma cell lines (SGC-7901) were provided as gifts (purchased from the Cell Resource Center of Shanghai Institutes for Biological Sciences) from the China-Japan Research Institute of Medical and Pharmaceutical Sciences, Shenyang Pharmaceutical University. Fibrosarcoma cell lines (HT-1080) were purchased from the Cell Resource Center of Shanghai Institutes for Biological Sciences. All cells were maintained in DMEM containing 1% antibiotics (100 units of penicillin and […] per mL in 0.9% normal saline) and 10% foetal bovine serum in a humidified atmosphere containing 5% CO2 at 37°C.
(§2) Antiproliferative activities of CA-4 and the target compounds were measured using a colourimetric assay using 3-(4,5-dimethylthiazol-2yl-)-2,5-diphenyltetrazolium bromide (MTT). Approximately 3 × 10^4 cells were seeded in a 96-well plate. After 24 h of incubation at 37°C, cells were exposed to compounds of differing concentrations (0.0008 μg/mL, 0.004 μg/mL, 0.02 μg/mL, 0.10 μg/mL, 0.50 μg/mL, 2.5 μg/mL, 12.5 μg/mL, 62.5 μg/mL) for 72 h. After treatment, cells were washed with 1X PBS followed by addition of 100 μL of 0.05% MTT reagent to each well, followed by incubation for 4 h at 37°C. After incubation, the supernatant from each well was carefully removed and the formazan crystals were dissolved in 100 μL of DMSO. The colour density was measured spectrophotometrically at 490 nm using a microplate reader (SpectraMax Plus384, Molecular Devices Corp., USA). The percentage of cell growth inhibition was calculated as follow: inhibition ratio % = (Acontrol—Atreated) / Acontrol × 100%. The 50% inhibitory concentration (IC50) was defined as the concentration that reduced the absorbance of the untreated wells by 50% of the vehicle in the MTT assay.

[2] = system: gastric adenocarcinoma cell line SGC-7901; assay: MTT antiproliferative assay, SGC-7901; format: cell-based; settings: Homo sapiens, 72 h drug exposure, triplicate, read-out: Antiproliferative activity (IC50 ± SD) SGC-7901
Source text: as §1, §2

[3] = system: pulmonary adenocarcinoma cell line A549; assay: MTT antiproliferative assay, A549; format: cell-based; settings: Homo sapiens, 72 h drug exposure, triplicate, read-out: Antiproliferative activity (IC50 ± SD) A549
Source text: as §1, §2

Structure (SMILES)	IC50 [1] [µM]	IC50 [2] [µM]	IC50 [3] [µM]	melting point [°C]
COc1ccc(-c2cc(C)nn2-c2cc(OC)c(OC)c(OC)c2)cc1F [Compound 7e, 3-Methyl-5-(3-fluoro-4-methoxyphenyl)-1-(3,4,5-trimethoxyphenyl)-1H-pyrazole]	5.52 ± 0.26	3.05 ± 0.33	2.84 ± 0.52	86 to 87
COc1cc(-n2nc(C)cc2-c2ccc(F)cc2)cc(OC)c1OC [Compound 7d, 3-Methyl-5-(4-fluorophenyl)-1-(3,4,5-trimethoxyphenyl)-1H-pyrazole]	> 100	20.7 ± 1.2	> 100	104 to 105
C=CCOc1ccc(-c2cc(C)nn2-c2cc(OC)c(OC)c(OC)c2)cc1OC [Compound 7f, 3-Methyl-5-(4-allyloxy-3-methoxyphenyl)-1-(3,4,5-trimethoxyphenyl)-1H-pyrazole]	> 100	23.6 ± 2.3	> 100	78 to 79
CCCc1cc(-c2ccc(OC)c(N)c2)n(-c2cc(OC)c(OC)c(OC)c2)n1 [Compound 7s, 3-Propyl-5-(3-amino-4-methoxyphenyl)-1-(3,4,5-trimethoxyphenyl)-1H-pyrazole]	23.2 ± 0.11	35.7 ± 0.08	56.6 ± 1	125 to 126
CCc1cc(-c2ccc(OC)c(N)c2)n(-c2cc(OC)c(OC)c(OC)c2)n1 [Compound 7r, 3-Ethyl-5-(3-amino-4-methoxyphenyl)-1-(3,4,5-trimethoxyphenyl)-1H-pyrazole]	8.16 ± 0.12	4.62 ± 0.09	3.55 ± 0.09	114 to 115
COc1ccc(-c2c(CO)c(C)nn2-c2cc(OC)c(OC)c(OC)c2)cc1O [Compound 7m, 4-Hydroxymethyl-3-methyl-5-(3-hydroxy-4-methoxy-phenyl)-1-(3,4,5-trimethoxyphenyl)-1H-pyrazole]	7.11 ± 0.23	8.42 ± 0.32	9.04 ± 0.25	166 to 167
CCc1cc(-c2ccc(OC)c([N+](=O)[O-])c2)n(-c2cc(OC)c(OC)c(OC)c2)n1 [Compound 7p, 3-Ethyl-5-(4-methoxy-3-nitrophenyl)-1-(3,4,5-trimethoxyphenyl)-1H-pyrazole]	> 100	> 100	> 100	151 to 152
COc1ccc(-c2c(C=O)c(C)nn2-c2cc(OC)c(OC)c(OC)c2)cc1O [Compound 7l, 4-Formyl-3-methyl-5-(3-hydroxy-4-methoxyphenyl)-1-(3,4,5-trimethoxyphenyl)-1H-pyrazole]	23.8 ± 1.8	16.4 ± 1.5	45.7 ± 3.3	97 to 98
COc1cc(-c2cc(C)nn2-c2cc(OC)c(OC)c(OC)c2)ccc1O [Compound 7j, 3-Methyl-5-(4-hydroxy-3-methoxyphenyl)-1-(3,4,5-trimethoxyphenyl)-1H-pyrazole]	> 100	25.9 ± 2.3	> 100	197 to 198
C=CCOc1cc(-c2cc(C)nn2-c2cc(OC)c(OC)c(OC)c2)ccc1OC [Compound 7g, 3-Methyl-5-(3-allyloxy-4-methoxyphenyl)-1-(3,4,5-trimethoxyphenyl)-1H-pyrazole]	> 100	6.45 ± 0.22	> 100	79 to 80
COc1ccc(-c2cc(C)nn2-c2cc(OC)c(OC)c(OC)c2)cc1 [Compound 7b, 3-Methyl-5-(4-methoxyphenyl)-1-(3,4,5-trimethoxy-phenyl)-1H-pyrazole]	1.01 ± 0.12	0.73 ± 0.09	15.2 ± 2.2	118 to 119
COc1ccc(-c2c(Br)c(C)nn2-c2cc(OC)c(OC)c(OC)c2)cc1[N+](=O)[O-] [Compound 7n, 4-Bromo-3-methyl-5-(4-methoxy-3-nitrophenyl)-1-(3,4,5-trimethoxyphenyl)-1H-pyrazole]	> 100	> 100	> 100	182 to 183
COc1ccc(-c2c(Br)c(C)nn2-c2cc(OC)c(OC)c(OC)c2)cc1N [Compound 7o, 4-Bromo-3-methyl-5-(3-amino-4-methoxyphenyl)-1-(3,4,5-trimethoxyphenyl)-1H-pyrazole]	15.9 ± 3.2	14.3 ± 3.1	79.1 ± 2	128 to 129
CCCc1cc(-c2ccc(OC)c([N+](=O)[O-])c2)n(-c2cc(OC)c(OC)c(OC)c2)n1 [Compound 7q, 3-Propyl-5-(4-methoxy-3-nitrophenyl)-1-(3,4,5-trimethoxyphenyl)-1H-pyrazole]	> 100	> 100	> 100	149 to 150
COc1ccc(-n2nc(C)cc2-c2cc(OC)c(OC)c(OC)c2)cc1N [Compound 8g, 3-Methyl-1-(3-amino-4-methoxyphenyl)-5-(3,4,5-trimethoxyphenyl)-1H-pyrazole]	24.7 ± 2.3	21.2 ± 1.6	21.4 ± 1.2	56 to 57
COc1cc(-n2nc(C)cc2-c2ccccc2)cc(OC)c1OC [Compound 7a, 3-Methyl-5-phenyl-1-(3,4,5-trimethoxyphenyl)-1H-pyrazole]	> 100	> 100	> 100	77 to 78
COc1ccc(-c2cc(C)nn2-c2cc(OC)c(OC)c(OC)c2)cc1[N+](=O)[O-] [Compound 7h, 3-Methyl-5-(4-methoxy-3-nitrophenyl)-1-(3,4,5-trimethoxyphenyl)-1H-pyrazole]	> 100	5.22 ± 0.19	> 100	145 to 146
COc1cc(-n2nc(C)cc2-c2ccc(C)cc2)cc(OC)c1OC [Compound 7c, 3-Methyl-5-(4-methylphenyl)-1-(3,4,5-trimethoxy-phenyl)-1H-pyrazole]	1.23 ± 0.15	0.53 ± 0.2	2.35 ± 0.33	–

Next, values leading:

IC50 [1] [µM]	IC50 [2] [µM]	IC50 [3] [µM]	melting point [°C]	Structure (SMILES)
11.9 ± 1.9	2.43 ± 0.09	28.2 ± 1.7	69 to 70	COc1cc(-c2cc(C)nn2-c2cc(N)ccc2C)cc(OC)c1OC [Compound 8e, 3-Methyl-1-(5-amino-2-methylphenyl)-5-(3,4,5-trimethoxyphenyl)-1H-pyrazole]
15 ± 0.9	13.7 ± 1.2	21.8 ± 2.1	167 to 168	COc1ccc(-n2nc(C)cc2-c2cc(OC)c(OC)c(OC)c2)cc1O [Compound 8i, 3-Methyl-1-(3-hydroxy-4-methoxyphenyl)-5-(3,4,5-trimethoxyphenyl)-1H-pyrazole]
> 100	> 100	> 100	98 to 99	C=CCOc1cc(-n2nc(C)cc2-c2cc(OC)c(OC)c(OC)c2)ccc1OC [Compound 8h, 3-Methyl-1-(3-allyloxy-4-methoxyphenyl)-5-(3,4,5-trimethoxyphenyl)-1H-pyrazole]
> 100	> 100	> 100	118 to 119	COc1ccc(-n2nc(C)cc2-c2cc(OC)c(OC)c(OC)c2)cc1[N+](=O)[O-] [Compound 8f, 3-Methyl-1-(4-methoxy-3-nitrophenyl)-5-(3,4,5-trimethoxyphenyl)-1H-pyrazole]
15.6 ± 1.5	11.8 ± 1.2	16.2 ± 1	70 to 71	COc1cc(-c2cc(C)nn2-c2ccc(C)cc2)cc(OC)c1OC [Compound 8c, 3-Methyl-1-(4-methylphenyl)-5-(3,4,5-trimethoxy-phenyl)-1H-pyrazole]
28.2 ± 1.9	19 ± 2	9.39 ± 0.21	67 to 68	COc1ccc(-n2nc(C)cc2-c2cc(OC)c(OC)c(OC)c2)cc1 [Compound 8b, 3-Methyl-1-(4-methoxyphenyl)-5-(3,4,5-trimethoxy-phenyl)-1H-pyrazole]
> 100	> 100	> 100	88 to 89	COc1cc(-c2cc(C)nn2-c2ccccc2)cc(OC)c1OC [Compound 8a, 3-Methyl-1-phenyl-5-(3,4,5-trimethoxyphenyl)-1H-pyrazole]
> 100	31.1 ± 2.5	48.6 ± 1.1	102 to 103	COc1cc(-c2cc(C)nn2-c2cc([N+](=O)[O-])ccc2C)cc(OC)c1OC [Compound 8d, 3-Methyl-1-(2-methyl-5-nitrophenyl)-5-(3,4,5-trimethoxyphenyl)-1H-pyrazole]
